Measured values: patent publication US20240158446A1, “CYCLIC COMPOUND HAVING SELECTIVE INHIBITORY ACTION ON KRAS OVER HRAS AND NRAS” (CHUGAI SEIYAKU KABUSHIKI KAISHA, priority 2021, published 2024)

What was measured:
[1] = target: GDP-bound KRAS wild-type protein (Homo sapiens, UniProt P01116); assay: Binding to KRAS by surface plasmon resonance (SPR), Single Cycle Kinetics; conditions: SPR Single Cycle Kinetics, GDP-bound KRAS wild-type protein, 1:1 binding model; read-out: KRAS KD
[2] = target: GDP-bound NRAS wild-type protein (Homo sapiens, UniProt P01111); assay: Binding to NRAS by surface plasmon resonance (SPR), Single Cycle Kinetics; conditions: SPR, GDP-bound NRAS wild-type protein vs GDP-bound KRAS wild-type protein
[3] = target: GDP-bound HRAS wild-type protein (Homo sapiens, UniProt P01112); assay: Binding to HRAS by surface plasmon resonance (SPR), Single Cycle Kinetics; conditions: SPR, GDP-bound HRAS wild-type protein vs GDP-bound KRAS wild-type protein
Chain of GDP-bound HRAS wild-type protein (P01112 whole entry): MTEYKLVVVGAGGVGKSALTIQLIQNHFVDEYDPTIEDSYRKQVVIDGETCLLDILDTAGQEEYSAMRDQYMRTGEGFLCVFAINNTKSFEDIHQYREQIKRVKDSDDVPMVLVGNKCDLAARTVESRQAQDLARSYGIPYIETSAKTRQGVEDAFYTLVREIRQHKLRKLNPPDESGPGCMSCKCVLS

Chain of GDP-bound KRAS wild-type protein (P01116 whole entry): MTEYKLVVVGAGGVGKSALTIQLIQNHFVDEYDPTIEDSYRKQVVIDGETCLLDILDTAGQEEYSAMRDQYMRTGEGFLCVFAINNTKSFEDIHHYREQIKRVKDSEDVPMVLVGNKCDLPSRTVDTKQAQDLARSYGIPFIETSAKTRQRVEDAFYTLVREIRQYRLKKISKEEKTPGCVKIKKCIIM
Chain of GDP-bound NRAS wild-type protein (P01111 whole entry): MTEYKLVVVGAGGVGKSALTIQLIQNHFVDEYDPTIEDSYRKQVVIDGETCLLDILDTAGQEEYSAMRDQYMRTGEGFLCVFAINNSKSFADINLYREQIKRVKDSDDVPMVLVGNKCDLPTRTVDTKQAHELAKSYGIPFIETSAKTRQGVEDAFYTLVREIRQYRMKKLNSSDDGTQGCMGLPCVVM

Row | Structure (SMILES) | Kd [1] [nM] | NRAS/KRAS (ratio of KD value with respect to NRAS to KD value with respect to KRAS) [2] | HRAS/KRAS (ratio of KD value with respect to HRAS to KD value with respect to KRAS) [3]
1 | CCCN1C(=O)[C@H](C2CCCC2)N(C)C(=O)C2(CCC2)NC(=O)[C@@H]2C[C@@H](OCC)CN2C(=O)[C@H](CCc2cc(F)c(C(F)(F)F)c(F)c2)NC(=O)CN(C)C(=O)[C@H](Cc2ccc(C(F)(F)F)cc2)N2CCCC[C@@H](C2=O)N(C)C(=O)CN(C)C(=O)[C@H]([C@@H](C)CC)NC(=O)[C@H](CC(C)C)N(C)C(=O)C[C@H]1C(=O)N1CCOCC1 [PP0649] | 0.75 | C (A compound having a KD ratio of 0.1 or more and less than 3 is denoted as C) | B (a compound having 3 or more and less than 10 is denoted as B)
2 | CCO[C@@H]1C[C@H]2C(=O)NC3(CCC3)C(=O)N(C)[C@@H](C3CCCC3)C(=O)N(CCC3CCC3)[C@H](C(=O)N3CCOCC3)CC(=O)N(C)[C@@H](CC(C)C)C(=O)N[C@@H]([C@@H](C)CC)C(=O)N(C)CC(=O)N(C)[C@H]3CCCCN(C3=O)[C@@H](Cc3ccc(C(F)(F)F)cc3)C(=O)N(C)CC(=O)N[C@@H](CCc3cc(F)c(C(F)(F)F)c(F)c3)C(=O)N2C1 [PP0650] | 0.62 | C (A compound having a KD ratio of 0.1 or more and less than 3 is denoted as C) | B (a compound having 3 or more and less than 10 is denoted as B)
3 | CCO[C@@H]1C[C@H]2C(=O)NC3(CCC3)C(=O)N(C)[C@@H](C3CCCC3)C(=O)N(CCC3CCCC3)[C@H](C(=O)N3CCOCC3)CC(=O)N(C)[C@@H](CC(C)C)C(=O)N[C@@H]([C@@H](C)CC)C(=O)N(C)CC(=O)N(C)[C@H]3CCCCN(C3=O)[C@@H](Cc3ccc(C(F)(F)F)cc3)C(=O)N(C)CC(=O)N[C@@H](CCc3cc(F)c(C(F)(F)F)c(F)c3)C(=O)N2C1 [PP0651] | 0.6 | B (a compound having 3 or more and less than 10 is denoted as B) | B (a compound having 3 or more and less than 10 is denoted as B)
4 | CC[C@H](C)[C@@H]1NC(=O)[C@H](CC)N(C)C(=O)C[C@@H](C(=O)N(C)C)N(C)C(=O)[C@H](C2CCCC2)N(C)C(=O)C2(CCC2)NC(=O)[C@@H]2CCCCN2C(=O)[C@H](CCc2cc(F)c(C(F)(F)F)c(F)c2)NC(=O)CN(C)C(=O)[C@H](Cc2ccc(C(F)(F)F)cc2)N2CCCCC[C@@H](C2=O)N(C)C(=O)CN(C)C1=O [PP0655] | 1.9 | B (a compound having 3 or more and less than 10 is denoted as B) | B (a compound having 3 or more and less than 10 is denoted as B)
5 | CC[C@H](C)[C@@H]1NC(=O)[C@H](CC)N(C)C(=O)C[C@@H](C(=O)N(C)C)N(CC)C(=O)[C@H](C2CCCC2)N(C)C(=O)C2(CCC2)NC(=O)[C@@H]2C[C@H](N3CCC(F)(F)CC3)CN2C(=O)[C@H](CCc2cc(F)c(C(F)(F)F)c(F)c2)NC(=O)CN(C)C(=O)[C@H](Cc2ccc(C(F)(F)F)cc2)N2CCCC[C@@H](C2=O)N(C)C(=O)CN(C)C1=O [PP0659] | 0.42 | B (a compound having 3 or more and less than 10 is denoted as B) | B (a compound having 3 or more and less than 10 is denoted as B)
6 | CC[C@H](C)[C@@H]1NC(=O)[C@H](CC)N(C)C(=O)C[C@@H](C(=O)N(C)C)N(CC)C(=O)[C@H](C2CCCC2)N(C)C(=O)C2(CCC2)NC(=O)[C@@H]2CCN2C(=O)[C@H](CCc2cc(F)c(C(F)(F)F)c(F)c2)NC(=O)CN(C)C(=O)[C@H](Cc2ccc(C(F)(F)F)cc2)N2CCCC[C@@H](C2=O)N(C)C(=O)CN(C)C1=O [PP0660] | 0.29 | B (a compound having 3 or more and less than 10 is denoted as B) | B (a compound having 3 or more and less than 10 is denoted as B)
7 | CC[C@H](C)[C@@H]1NC(=O)[C@H](CC)N(C)C(=O)C[C@@H](C(=O)N(C)C)N(CC)C(=O)[C@H](C2CCCC2)N(C)C(=O)C2(CCC2)NC(=O)[C@@H]2CCCCN2C(=O)[C@H](CCc2cc(F)c(C(F)(F)F)c(F)c2)NC(=O)CN(C)C(=O)[C@H](Cc2ccc(C(F)(F)F)cc2)N2CCCC[C@@H](C2=O)N(C)C(=O)CN(C)C1=O [PP0661] | 0.34 | C (A compound having a KD ratio of 0.1 or more and less than 3 is denoted as C) | B (a compound having 3 or more and less than 10 is denoted as B)
8 | CC[C@H](C)[C@@H]1NC(=O)[C@H](CC(C)C)N(C)C(=O)C[C@@H](C(=O)N2CCOCC2)N(C)C(=O)[C@H](C2CCCC2)N(C)C(=O)C2(CCCC2)NC(=O)[C@@H]2[C@@H](O)CCN2C(=O)[C@H](CCc2cc(F)c(C(F)(F)F)c(F)c2)NC(=O)CN(C)C(=O)[C@H](Cc2ccc(C(F)(F)F)cc2)N2CCCCC[C@@H](C2=O)N(C)C(=O)CN(C)C1=O [PP0662] | 3.1 | B (a compound having 3 or more and less than 10 is denoted as B) | B (a compound having 3 or more and less than 10 is denoted as B)
9 | C#CC[C@H]1C(=O)N[C@@H]([C@@H](C)CC)C(=O)N(C)CC(=O)N(C)[C@H]2CCCCCN(C2=O)[C@@H](Cc2ccc(C(F)(F)F)cc2)C(=O)N(C)CC(=O)N[C@@H](CCc2cc(F)c(C(F)(F)F)c(F)c2)C(=O)N2C[C@H](OCC)C[C@H]2C(=O)NC2(CCC2)C(=O)N(C)[C@@H](C2CCCC2)C(=O)N(C)[C@H](C(=O)N(C)C)CC(=O)N1C [PP0666] | 0.33 | B (a compound having 3 or more and less than 10 is denoted as B) | B (a compound having 3 or more and less than 10 is denoted as B)

Now those with a lower Kd [1], led by results:

Row | Kd [1] [nM] | Structure (SMILES) | NRAS/KRAS (ratio of KD value with respect to NRAS to KD value with respect to KRAS) [2] | HRAS/KRAS (ratio of KD value with respect to HRAS to KD value with respect to KRAS) [3]
10 | 0.28 | CCO[C@@H]1C[C@H]2C(=O)NC3(CCC3)C(=O)N(C)[C@@H](C3CCCC3)C(=O)N(C)[C@H](C(=O)N(C)C)CC(=O)N(C)[C@@H](CC)C(=O)N[C@@H]([C@@H](C)CC)C(=O)N(C)CC(=O)N(C)[C@H]3CCCCCN(C3=O)[C@@H](Cc3ccc(C(F)(F)F)cc3)C(=O)N(C)CC(=O)N[C@@H](CCc3cc(F)c(C(F)(F)F)c(F)c3)C(=O)N2C1 [PP0663] | B (a compound having 3 or more and less than 10 is denoted as B) | B (a compound having 3 or more and less than 10 is denoted as B)
11 | 0.24 | C=CC[C@H]1C(=O)N[C@@H]([C@@H](C)CC)C(=O)N(C)CC(=O)N(C)[C@H]2CCCCCN(C2=O)[C@@H](Cc2ccc(C(F)(F)F)cc2)C(=O)N(C)CC(=O)N[C@@H](CCc2cc(F)c(C(F)(F)F)c(F)c2)C(=O)N2C[C@H](OCC)C[C@H]2C(=O)NC2(CCC2)C(=O)N(C)[C@@H](C2CCCC2)C(=O)N(C)[C@H](C(=O)N(C)C)CC(=O)N1C [PP0665] | B (a compound having 3 or more and less than 10 is denoted as B) | B (a compound having 3 or more and less than 10 is denoted as B)
12 | 0.21 | CCO[C@@H]1C[C@H]2C(=O)NC3(CCC3)C(=O)N(C)[C@@H](C3CCCC3)C(=O)N(CC)[C@H](C(=O)N3CCOCC3)CC(=O)N(C)[C@@H](CC(C)C)C(=O)N[C@@H]([C@@H](C)CC)C(=O)N(C)CC(=O)N(C)[C@H]3CCCCN(C3=O)[C@@H](Cc3ccc(C(F)(F)F)cc3)C(=O)N(C)CC(=O)N[C@@H](CCc3cc(F)c(C(F)(F)F)c(F)c3)C(=O)N2C1 [PP0648] | B (a compound having 3 or more and less than 10 is denoted as B) | B (a compound having 3 or more and less than 10 is denoted as B)
13 | 0.076 | CC[C@H](C)[C@@H]1NC(=O)[C@H](CC)N(C)C(=O)C[C@@H](C(=O)N(C)C)N(C)C(=O)[C@H](C2CCCC2)N(C)C(=O)C2(CCC2)NC(=O)[C@@H]2CCN2C(=O)[C@H](CCc2cc(F)c(C(F)(F)F)c(F)c2)NC(=O)CN(C)C(=O)[C@H](Cc2ccc(C(F)(F)F)cc2)N2CCCC[C@@H](C2=O)N(C)C(=O)CN(C)C1=O [PP0657] | B (a compound having 3 or more and less than 10 is denoted as B) | B (a compound having 3 or more and less than 10 is denoted as B)
14 | 0.039 | CC[C@H](C)[C@@H]1NC(=O)[C@H](CC)N(C)C(=O)C[C@@H](C(=O)N(C)C)N(C)C(=O)[C@H](C2CCCC2)N(C)C(=O)C2(CCC2)NC(=O)[C@@H]2C[C@@H](N3CCC(F)(F)CC3)CN2C(=O)[C@H](CCc2cc(F)c(C(F)(F)F)c(F)c2)NC(=O)CN(C)C(=O)[C@H](Cc2ccc(C(F)(F)F)cc2)N2CCCC[C@@H](C2=O)N(C)C(=O)CN(C)C1=O [PP0656] | C (A compound having a KD ratio of 0.1 or more and less than 3 is denoted as C) | C (A compound having a KD ratio of 0.1 or more and less than 3 is denoted as C)
15 | 0.034 | CC[C@H](C)[C@@H]1NC(=O)[C@H](CC)N(C)C(=O)C[C@@H](C(=O)N(C)C)N(C)C(=O)[C@H](C2CCCC2)N(C)C(=O)C2(CCC2)NC(=O)[C@@H]2CCCCN2C(=O)[C@H](CCc2cc(F)c(C(F)(F)F)c(F)c2)NC(=O)CN(C)C(=O)[C@H](Cc2ccc(C(F)(F)F)cc2)N2CCCC[C@@H](C2=O)N(C)C(=O)CN(C)C1=O [PP0658] | C (A compound having a KD ratio of 0.1 or more and less than 3 is denoted as C) | B (a compound having 3 or more and less than 10 is denoted as B)
